US20190022162A1, “COMBINATION ANTICANCER ENDOWED WITH ANTITUMOR ACTIVITY, COMPRISING ALKALOIDS OF CHELIDONIUM MAJUS” (International Society for Drug Development S.R.L., priority 2015, published 2019)

Assays:
U343 (glioblastoma) [1] = assay: Cell counting (Trypan blue, Neubauer chamber), U343 cells; type: cell-based; conditions: for percentage of viable cells compared to the control: 48 h
Procedure: (§1) The U343 cells and the HDF cells were cultivated in T25 flasks and treated with the agents after reaching a confluence of 90%. After 48 hours of treatment, the cells were detached with trypsin-EDTA and suspended in medium consisting of 50% DMEM and 50% Trypan blue. The number of viable cells after each treatment was estimated by using the Neubauer counting chamber, excluding cells positive to Trypan blue. At least three countings were made for each treatment.
(§2) The percentage of viable cells compared to the control was determined by the ratio between the number of treated cells and the number of untreated cells.

[2] = tested on: MIA PaCa-2 pancreatic cancer cell line; assay: Cell counting (Trypan blue, Neubauer chamber), MIA PaCa-2 cells; type: cell-based; conditions: for percentage of viable cells relative to the control: 48 h
Procedure: The MIA PaCa-2 cells were cultivated in T25 flasks and treated with the agents after reaching a confluence of 90%. After a 48 hours treatment, the cells were detached with trypsin-EDTA and suspended in medium consisting of 50% DMEM and 50% Trypan blue. The number of viable cells after each treatment was estimated by using the Neubauer counting chamber, excluding those cells which turned out positive to Trypan blue. At least three counts were made for each treatment.
The percentage of viable cells relative to the control was determined by the ratio between the number of treated cells and the number of untreated cells.

[3] = tested on: MIA PaCa-2 (pancreatic carcinoma); assay: WST-1 assay (dehydrogenase activity / cell viability), MIA PaCa-2 cells
U343 (glioblastoma) [4] = assay: WST-1 assay (dehydrogenase activity / cell viability), U343 cells; conditions: 48 h
[5] = tested on: human dermal fibroblasts (HDF); assay: Cell counting (Trypan blue, Neubauer chamber), HDF cells; type: cell-based
Procedure: (§3) For sake of completeness' of information and for the purpose of evaluating the differential cytotoxicity exerted both by the individual components of the combinations and by the combinations themselves on tumour and normal cells, the same treatments tested on U343 cells were also conducted on human dermal fibroblasts (HDF), chosen as a model of cells not concerned by tumour pathologies; this allowed, in the case of treatments tested on U343 cells, evaluations of the differential effects of the tested agents against tumour cells and against a model of normal cells, in accordance with the invention.
as §1, §2

[6] = as above; type: cell-based, human; conditions: human, human dermal fibroblasts (HDF)
Procedure: as §3, §1, §2

U343 cells / HDF cells = assay: Therapeutic Favourability Index (ratio of viable U343 to viable HDF cells); type: cell-based
Excerpt: It may be useful to remind that the TFI parameter allows estimating the ratio between desired cytotoxicity (on U343 cells) and undesired cytotoxicity (on HDF cells used as a normal cell model). The lower the value of the TFI parameter, the more the assayed agent is adequate for therapeutic use, since this parameter measures the ratio between desired cytotoxicity (on tumour cells) and undesired cytotoxicity (on the cells of the non-tumour model).

[7] = 2.154 μM (combination equimolar)
[8] = 4.642 μM (combination equimolar)

COc1ccc2cc3[n+](cc2c1OC)CCc1cc2c(cc1-3)OCO2 [Berberine, berberine]
% proliferation of U343 against control (U343 (glioblastoma) [1]; 0.464 μM): 94.00%
% proliferation of U343 against control (U343 (glioblastoma) [1]; 2.154 μM): 82.60%
% proliferation of U343 against control (U343 (glioblastoma) [1]; 10.0 μM): 59.80%
percentage of viable cells compared to the control (U343 (glioblastoma) [1]; Ber 0.464 μM): 94%
percentage of viable cells compared to the control (U343 (glioblastoma) [1]; Ber 2.154 μM): 82.6%
percentage of viable cells compared to the control (U343 (glioblastoma) [1]; Ber 10 μM): 59.8%
percentage of viable cells relative to the control ([2]; Ber 0.4 μM): 88%
percentage of viable cells relative to the control ([2]; Ber 2.0 μM): 51%
percentage of viable cells relative to the control ([2]; Ber 10 μM, listed as Ber): 33%
percentage of viable cells relative to the control ([2]; Ber 50 μM): 24%
Δ (viability %) ([3]; 0.215 μM (combination equimolar), 48 h): 5.73%
decrease in the metabolic activity ([3]; starting from concentrations slightly lower than 10 μM): approx. 50%
Δ (viability %) (U343 (glioblastoma) [4]; 0.1 μM (combination equimolar)): 23.2128%
Δ (viability %) (U343 (glioblastoma) [4]; 0.215 μM (combination equimolar)): 12.3254%
Δ (viability %) (U343 (glioblastoma) [4]; 0.464 μM (combination equimolar)): 36.3599%
Δ (viability %) (U343 (glioblastoma) [4]; 1 μM (combination equimolar)): 27.3008%
Δ (viability %) (U343 (glioblastoma) [4]; [7]): 15.4889%
Δ (viability %) (U343 (glioblastoma) [4]; [8]): 11.3394%
Δ (viability %) (U343 (glioblastoma) [4]; 10 μM (combination equimolar)): 10.3533%
% proliferation of HDF against control ([5]; 0.464 μM): 82.65%
% proliferation of HDF against control ([5]; 2.154 μM): 71.41%
% proliferation of HDF against control ([5]; 10.0 μM): 67.35%
viability at 48 h, 0.464 μM ([6]; Ber 0.464 μM, 48 h, read-out: percentage of viable cells compared to the control): 82.7%
viability at 48 h, 2.154 μM ([6]; Ber 2.154 μM, 48 h, read-out: percentage of viable cells compared to the control): 70.4%
viability at 48 h, 10 μM ([6]; Ber 10 μM, 48 h, read-out: percentage of viable cells compared to the control): 67.3%
TFI index U343/HDF % proliferation ratio (U343 cells / HDF cells; 0.464 μM): 1.137
TFI index U343/HDF % proliferation ratio (U343 cells / HDF cells; 2.154 μM): 1.173
TFI index U343/HDF % proliferation ratio (U343 cells / HDF cells; 10.0 μM): 0.888

CN1Cc2c(ccc3c2OCO3)[C@@H]2[C@H]1c1cc3c(cc1C[C@@H]2O)OCO3 [Chelidonine, chelidonine]
Δ (viability %) (U343 (glioblastoma) [4]; 0.1 μM (combination equimolar)): 2.4722%
Δ (viability %) (U343 (glioblastoma) [4]; 1 μM (combination equimolar)): 25.9168%
Δ (viability %) (U343 (glioblastoma) [4]; [7]): 40.0495%
Δ (viability %) (U343 (glioblastoma) [4]; [8]): 24.4335%
Δ (viability %) (U343 (glioblastoma) [4]; 10 μM (combination equimolar)): 14.3799%

Nc1ccn([C@@H]2O[C@H](CO)[C@@H](O)C2(F)F)c(=O)n1 [Gemcitabine, gemcitabine, reference compound]
percentage of viable cells relative to the control ([2]; Gemcitabine 20 μM): 33%
viability at 20 µM ([2]; Homo sapiens, MIA PaCa-2, 48 h, Gemcitabine 20 μM, read-out: percentage of viable cells relative to the control): > 30%
effect on cell metabolic activity ([3]; agent alone, 0.1-10 μM): essentially negligible increase

Cn1nnc2c(C(N)=O)ncn2c1=O [temozolomide, reference compound]
cytotoxicity at 48 h ([6]; direct administration, decrease up to, read-out: reduction in the percentage of viable HDF cells): 60 to 70%
